Data taken from patent US20030187049A1, “Compositions based on aminoacids, suitable for improving muscle performance” (priority 2003, published 2003).

Tested on: athletes
Assay: comparative study of amino acids mixture, creatine and placebo in athletes: bench press, squat, braked bicycle ergometer
Type: in vivo, humans
Source text: The effects on energy balance of the an amino acids mixture according to the invention as above indicated were the subject of a comparative study with creatine, on a weight ratio (w/w), or with no treatment, on a large group of volunteers submitted to a rigid protocol of alimentation and training. […] In some athletes, also heart frequency rate and VO2 max were registered while performing a treadmill test, before arid at the end of this study.

[1] = after one month of treatment and training, mixture 24 g/d, creatine 25 g/d

SMILES: CN(CC(=O)O)C(=N)N [creatine]
- performances over basal and no treatment group (after one month): significant improvements of performances
- Bench press [1]: 177 ± 34 kg
- Squat Room. [1]: 148.5 ± 31.2 kg
- Watt/Kg max (maximal power productive performance on a braked bicycle ergometer) [1]: 9.8 ± 0.6 watt/kg max
